Assay results reported in PubChem BioAssay AID652053 (Broad Institute, 2013).

test system: Huh7 psiCHECK-miR122 Renilla luciferase reporter, 48 h; test: suppression of miR-122 activity, Renilla luciferase sensor – cell-based, Huh7 psiCHECK-miR122, cherry-pick, dose response (AID 652053)

Row | Compound | AC40 [µM]
1 | C[C@@H]1CN([C@@H](C)CO)C(=O)c2cccc(NC(=O)c3cnccn3)c2O[C@H]1CN(C)Cc1ccc(C(F)(F)F)cc1 | 19.2
2 | C[C@H]1CN([C@@H](C)CO)C(=O)c2cc(N(C)C)ccc2O[C@H]1CN(C)Cc1ccc(C(=O)Nc2ccccc2N)cc1 | 5.42
3 | O=S(=O)(/N=C(/Nc1ccc(Cl)c(S(=O)(=O)Nc2ccccc2Cl)c1)c1ccc(F)cc1)c1ccccc1 | 26.8
4 | Cc1cc(C)cc(NS(=O)(=O)c2ccc(NC(=S)NC(=O)c3cccs3)cc2)c1 | < 0.26
5 | CCOc1cc(S(=O)(=O)Nc2cc(C)cc(C)c2)ccc1Cl | 1.99
6 | Cc1ccccc1OC1C(=O)N(Cc2ccc3c(c2)OCO3)C1c1sccc1C (stereo not given) | 13.7
7 | COc1ccc(S(=O)(=O)NCc2ccccc2)cc1 | 2.53
8 | O=S(=O)(Nc1ncnc2c1oc1ccccc12)c1ccc(Cl)s1 | 18.8
9 | COc1cc(NS(=O)(=O)c2ccc(C)c(C)c2)c(OC)cc1Cl | 15.2
10 | COc1ccc(C2C(Oc3ccccc3)C(=O)N2c2cc(C)ccc2C)cc1OC (stereo not given) | 23.1
11 | Cc1cc(C)c(S(=O)(=O)NCc2ccccn2)cc1C | 9.76
12 | COc1ccc(OC)c(S(=O)(=O)N2CCC3(CC2)OCCN3S(=O)(=O)c2cccs2)c1 | 15.7
13 | O=C(Nc1ccc2c(c1)CCC2)c1cc(S(=O)(=O)Nc2ccc(F)cc2)c(Cl)cc1Cl | 4.1
14 | CCc1c(C(=O)Nc2cc(C)cc(C)c2)[nH]c(C)c1C(C)=O | 14.8
15 | CC(C)(C)c1cc(C(=O)NNc2cccc(Cl)c2)n(Cc2ccccc2)n1 | 4.19
16 | CCc1ccc(-c2cc(C)no2)cc1S(=O)(=O)NCCc1ccc(OC)c(OC)c1 | 7.43
17 | CN(Cc1ccccc1)S(=O)(=O)c1ccc(NC(=S)NC(=O)C2CCCCC2)cc1 | 13.4
18 | O=C(CN1c2ccccc2Sc2ccccc21)NNC(=O)Nc1cccc(Cl)c1 | 17.1
19 | C[C@H](CO)N1C[C@H](C)[C@@H](CN(C)Cc2ccc(C(F)(F)F)cc2)Oc2c(cccc2N(C)C)C1=O | 2.48
20 | Cc1cc(Cl)c(S(=O)(=O)NCc2ccccc2)cc1OCC(N)=O | 8.54
21 | COc1ccc(Cl)cc1S(=O)(=O)NCc1cccnc1 | 14.5
22 | CC(C)CNS(=O)(=O)c1cc2c3c(c1)CCC(=O)N3CCC2 | 9.58
23 | CC1CCCCN1C(=O)c1cc2nc(-c3ccccc3)cc(-c3ccccc3)n2n1 (stereo not given) | 2.46
24 | Cc1ccc(C(=O)Nc2ccc(C)c(S(=O)(=O)Nc3ccccc3Cl)c2)s1 | 3.03
25 | COc1cccc(N2CCN(C(=O)c3oc4ccccc4c3NC(=O)Cc3ccc(OC)c(OC)c3)CC2)c1 | 1.62

Row | Compound | AC40 [µM]
26 | O=C(COc1ccc(S(=O)(=O)NC2CCCCC2)cc1)Nc1ccc2c(c1)OCCO2 | 7.82
27 | COc1cc(OC)c(NS(=O)(=O)c2ccc(Cl)c(C(=O)OC(C)C(=O)N3CCCC3)c2)cc1Cl (stereo not given) | 8.08
28 | C[C@@H]1CN([C@H](C)CO)C(=O)c2cccc(NS(=O)(=O)c3ccccc3)c2O[C@@H]1CN(C)Cc1ccc(C(=O)Nc2ccccc2N)cc1 | 17.2
29 | O=C(Nc1nc2ccc(Cl)cc2s1)c1ccco1 | 20.8
30 | COc1ccc(NS(=O)(=O)c2cc(OC)ccc2OC)cc1 | 5.31
31 | COc1ccc(NS(=O)(=O)c2cc(N)ccc2N2CCOCC2)cc1 | 6.74
32 | O=S(=O)(NCc1ccco1)c1ccc2ccccc2c1 | 2.62
33 | Cc1noc(C)c1NC(=O)Nc1cccc2c1O[C@H](CN(C)Cc1ccccc1)[C@@H](C)CN([C@H](C)CO)C2=O | 7.74
34 | CCc1ccc(-c2cc(C)no2)cc1S(=O)(=O)NCCc1ccc(S(N)(=O)=O)cc1 | 4.08
35 | CCOc1cc(C)c(Cl)cc1S(=O)(=O)NC1CC(C)(C)NC(C)(C)C1 | 6.39
36 | CC(=O)c1cccc(NS(=O)(=O)c2ccc3c(c2)oc(=O)n3C)c1 | 7.31
37 | COc1cc(C)c(Cl)c(C)c1S(=O)(=O)NCc1cccnc1 | 2.3
38 | O=C(NCCCn1ccnc1)c1cc(-c2ccccc2)on1 | 28.8
39 | COc1ccc(NS(=O)(=O)c2cc(NC(=O)c3ccco3)ccc2N2CCCCC2)cc1 | < 0.26
40 | S=C(NCCc1ccccc1)Nc1ccc(Cl)cc1Cl | 5.71
41 | COc1ccc(S(=O)(=O)Nc2ccc(S(=O)(=O)Nc3ccc(F)cc3)cc2)cc1C | 14.5
42 | COc1ccc(S(=O)(=O)N(CCc2ccccc2)CC(=O)N2CCOCC2)cc1 | 17.1
43 | COc1cc(S(=O)(=O)Nc2ccccc2N2CCCCC2)ccc1NC(C)=O | 6.94
44 | C[C@H](CO)N1C[C@H](C)[C@@H](CN(C)Cc2ccc(C(F)(F)F)cc2)Oc2c(NC(=O)c3nc4ccccc4s3)cccc2C1=O | 2.32
45 | O=C(c1ccccc1F)N1CC[C@@H]2[C@@H](CO)Nc3ccc(-c4cccc(F)c4)cc3[C@@H]21 | 1.29
46 | COc1ccc(S(=O)(=O)Nc2cc3c(C(C)=O)c(C)oc3c3ccccc23)cc1 | 14.9
47 | CCOc1ccccc1N(CC(=O)N1CCCCCC1)S(=O)(=O)c1ccc(C)cc1 | 1.23
48 | COc1ccc(NS(=O)(=O)c2cc(C)ccc2OC)cc1OC | 3.76
49 | O=S(=O)(Nc1ccc2cn[nH]c2c1)c1cc(Br)ccc1Br | 4.32
50 | Cc1ccc(NS(=O)(=O)c2cc(C(=O)NCCSc3ccc(C)cc3)ccc2C)cc1 | 4.89

Row | Compound | AC40 [µM]
51 | C[C@@H]1CN([C@H](C)CO)C(=O)c2cccc(NS(C)(=O)=O)c2O[C@@H]1CN(C)Cc1ccc(C(F)(F)F)cc1 | 12.5
52 | Cc1ccc(C2c3c(-c4ccccc4O)n[nH]c3C(=O)N2Cc2ccncc2)cc1 (stereo not given) | 8.08
53 | CCc1ccc(NS(=O)(=O)c2ccc(OC)c3ncccc23)cc1 | 0.362
54 | CC(C)c1ccc(S(=O)(=O)Nc2ccc(-n3cnnn3)cc2)cc1 | 2.55
55 | Cc1cc(S(=O)(=O)NCC(c2ccccc2)c2ccccc2)ccc1-n1cnnn1 | 2.23
56 | COc1cc(C)c(Cl)cc1S(=O)(=O)NCc1ccco1 | 1.18
57 | COc1ccc(-c2cc(C)no2)cc1S(=O)(=O)Nc1cccc(C)c1 | 0.83
58 | O=S1(=O)CCC(NS(=O)(=O)c2ccc3ccccc3c2)C1 (stereo not given) | 13.4
59 | CCNS(=O)(=O)c1ccc(NS(=O)(=O)c2cc(C)ccc2C)cc1 | 1.86
60 | O=C(c1ccc(F)cc1)N1C[C@H]2[C@@H](c3ccccc31)[C@@H](CO)N2Cc1ccc2c(c1)OCO2 | 17.3
61 | CCOc1ccc(S(=O)(=O)Nc2ccc3c(c2)OCO3)c2cccnc12 | < 0.26
62 | O=C(Nc1ccccc1O)c1ccc(NS(=O)(=O)c2cccc3cccnc23)cc1 | 14.8
63 | COc1ccccc1NS(=O)(=O)c1cc(NC(=O)CCC(=O)c2cccs2)ccc1Cl | 21.7
64 | O=C(COc1ccc(S(=O)(=O)NC2CCCCC2)cc1)NC1CCCC1 | 8.46
65 | CC(C)Oc1ccc(C(=O)Nc2ccc(Cl)c(S(=O)(=O)Nc3ccc(Cl)cc3)c2)cc1 | 0.559
66 | Cc1ccc(C)c(S(=O)(=O)Nc2ccc3sc(C)nc3c2)c1 | 1.5
67 | O=C(NCCCn1ccnc1)c1cccc(S(=O)(=O)Nc2ccc(F)cc2)c1 | 3.77
68 | Cc1cccc(NS(=O)(=O)c2ccc(-c3cnc(C4CC4)o3)cc2)c1 | 2.13
69 | COC(=O)c1cc(S(=O)(=O)Nc2cc(OC)cc(OC)c2)cn1C | 2.37
70 | Cc1ccc(NS(=O)(=O)c2cc(C(=O)NCCSC3CCCCC3)ccc2C)cc1 | 4.68
71 | CC(=O)Nc1ccc2c(c1)C(=O)N(C)[C@H]1CC[C@@H](CC(=O)NCc3ccc(Cl)cc3)O[C@H]1CO2 | 11
72 | COc1ccc(NS(=O)(=O)c2ccc(NC(=S)NC(=O)CC(C)C)cc2)cc1 | 0.502
73 | CCCNC(=O)C[C@@H]1CC[C@H]2[C@H](COc3ccc(NC(=O)c4ccc5c(c4)OCO5)cc3C(=O)N2C)O1 | 2.21
74 | C[C@H](CO)N1C[C@H](C)[C@H](CN(C)Cc2ccc(C(=O)Nc3ccccc3N)cc2)Oc2ccc(NS(=O)(=O)c3ccc(Cl)cc3)cc2CC1=O | 7.89
75 | CCCNC(=O)NC[C@@H]1[C@@H](c2ccc(C3=CCCCC3)cc2)[C@H](CO)N1C(C)=O | 2.47

Row | Compound | AC40 [µM]
76 | O=S(=O)(NCCc1ccncc1)c1cc(Br)ccc1F | 2.66
77 | Cc1cc(S(=O)(=O)Nc2cc(C)c(O)c(C)c2)c(C)s1 | 24.9
78 | C[C@@H]1CN([C@@H](C)CO)C(=O)Cc2cc(N(C)C)ccc2O[C@H]1CN(C)Cc1ccc(C(=O)Nc2ccccc2N)cc1 | 10.1
79 | O=S(=O)(NCCc1ccncc1)c1ccc(Br)cc1 | 1.15
80 | C=C(C)CN(CC)C(=O)COc1ccc(S(=O)(=O)Nc2ccc(OC)cc2)cc1 | 7.78
81 | Cc1ccccc1OCC(=O)NNC(=O)Nc1ccc(Cl)cc1 | 17.4
82 | S=C(Nc1ccc(Cl)cc1Cl)NC1CCCCC1 | 3.4
83 | C[C@]12CC[C@H](O)C[C@H]1CC[C@@H]1[C@@H]2CC[C@]2(C)[C@@H](C3=CC(=O)OC3)CC[C@]12O | 5.74
84 | O=C(Nc1ccccc1F)N1C[C@H]2[C@@H](c3ccccc31)[C@@H](CO)N2C(=O)c1ccc(F)cc1 | 1.25
85 | COc1ccc2oc(C(=O)N3CCc4ccccc43)c(C)c2c1 | 5.37
86 | CN1C(=O)c2cc(NC(=O)Cc3ccccc3)ccc2OC[C@@H]2O[C@H](CC(=O)NCC3CC3)CC[C@@H]21 | 0.512
87 | O=C(c1ccc(F)cc1)N1C[C@@H]2[C@H](c3ccccc31)[C@H](CO)N2C(=O)c1ccc(F)cc1 | 2.35
88 | Cc1ccc(S(=O)(=O)N2CC[C@@H]3[C@@H](CO)Nc4ccc(-c5ccccc5F)cc4[C@@H]32)cc1 | 1.69
89 | COc1ccccc1NS(=O)(=O)c1cc(NC(=O)CCC2CCCC2)ccc1N1CCOCC1 | 1.45
90 | Cc1noc(C)c1S(=O)(=O)N(C)C[C@@H]1Oc2c(NC(=O)c3cnccn3)cccc2C(=O)N([C@@H](C)CO)C[C@@H]1C | 5.81
91 | C[C@@H]1CN([C@@H](C)CO)C(=O)c2cc(N(C)C)ccc2O[C@H]1CN(C)Cc1ccc(C(=O)Nc2ccccc2N)cc1 | 9.78
92 | Cc1cc(C)c(-n2nnnc2SCC(=O)c2cccs2)c(C)c1 | 14.9
93 | O=C(Nc1sc2c(c1C(=O)O)CCC2)c1cccs1 | 9.16
94 | CCN(CC)S(=O)(=O)c1cc(NS(=O)(=O)c2cc(Cl)ccc2Cl)ccc1C | 4.19
95 | COc1ccc(NS(=O)(=O)c2c(C)cc(C)cc2C)cc1 | 4.53
96 | COc1ccc(NC(=O)CCC(=O)c2cccs2)cc1S(=O)(=O)Nc1ccc(Cl)cc1 | 0.884
97 | O=S(=O)(NCCc1ccc(F)cc1)c1cc(C(F)(F)F)ccc1Br | < 0.26
98 | C[C@H](CO)N1C[C@H](C)[C@H](CN(C)Cc2ccc(C(=O)Nc3ccccc3N)cc2)Oc2ccc(NC(=O)Nc3cccc4ccccc34)cc2CC1=O | 16.9
99 | Cc1ccc(S(=O)(=O)Nc2ccc3ccccc3c2)cc1 | 7.08
100 | CN1c2ccc(-c3cccc(F)c3)cc2[C@H]2[C@H](CCN2S(=O)(=O)c2cccc(F)c2)[C@H]1CO | 6.4
